The results in this text go back to ChEMBL document CHEMBL1201862, “PubChem BioAssay data set” (2004).

Where a name gives a salt, the structure may show the parent alone.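 How tested: cells in 96-well plates exposed to compound for 48 hours at five concentrations. GI50 = concentration required for 50% inhibition of growth.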 Calls of active or inactive are those of the source. Rule as the data show it: active = GI50 up to about 1.1 µM and inactive = higher.

Some test systems named below: OVCAR-8; IGROV-1; HCT-116; OVCAR-3; SF-295; SF-539; U-251; TK-10; SNB-19; Malme-3M; ACHN; KM12; HOP-62; M14; HL-60; NCI-H460; A549.
What all share (assay): NCI-60 cell line screen, 48 h

In the case of `COc1cccc(/C=N/C23CC4CC(CC(C4)C2)C3)c1`, the GI50 in the test with OVCAR-8, in the test with IGROV-1, with HCT-116, in the test with OVCAR-3, with SF-295 and in the test with SF-539 was > 100 µM (inactive) each time. Further, the GI50 with U-251, with TK-10, with SNB-19, in the test on Malme-3M, with ACHN and in the test on KM12 was > 100 µM (inactive) in each case. For the same molecule, the GI50 in the test on HOP-62, in the test with M14, with HL-60, with NCI-H460 and in the test on A549 was > 100 µM (inactive) throughout.
On to `COC(=O)C1=CCS(=O)(=O)C1`, for which the GI50 with OVCAR-8, in the test on IGROV-1, in the test with HCT-116, with OVCAR-3, with SF-295 and in the test on SF-539 was > 100 µM (inactive) throughout. Besides, the GI50 in the test with TK-10, with SNB-19, in the test on Malme-3M, in the test with ACHN, in the test on KM12 and with HOP-62 was > 100 µM (inactive) throughout. The GI50 in the test on M14, in the test on HL-60, in the test with NCI-H460 and in the test on A549 was > 100 µM (inactive) throughout.
Take `O=C1C2C(C(=O)N1Cc1ccccc1)N(Cc1ccccc1)C(=O)N2Cc1ccccc1` (stereo not drawn): the GI50 with OVCAR-8, in the test on IGROV-1, in the test on HCT-116, with OVCAR-3, in the test with SF-295 and in the test with SF-539 was > 100 µM (inactive) each time. The GI50 with U-251, in the test with TK-10, in the test on SNB-19, in the test with Malme-3M, in the test on ACHN and in the test with KM12 was > 100 µM (inactive) in each case. Also, the GI50 in the test with HOP-62, in the test with M14, with HL-60, in the test with NCI-H460 and with A549 was > 100 µM (inactive) in each case.
Consider `CCc1cccc(C)c1NC(=O)CCc1nnc(SC)o1`, for which the GI50 with OVCAR-8, with IGROV-1, with HCT-116, in the test on OVCAR-3, in the test on SF-295 and in the test on SF-539 was > 100 µM (inactive) in each case. Besides, the GI50 with U-251, in the test on TK-10, in the test with SNB-19, in the test on Malme-3M, in the test on ACHN and in the test on KM12 was > 100 µM (inactive) each time. Moreover, the GI50 with HOP-62, in the test with M14, with HL-60, with NCI-H460 and in the test on A549 was > 100 µM (inactive) throughout.
As for `Nc1cccc2c1-c1c(cccc1[N+](=O)[O-])C2=O`, the GI50 in the test with OVCAR-8, in the test with IGROV-1, with HCT-116, with OVCAR-3, in the test on SF-295 and in the test on SF-539 was > 100 µM (inactive) throughout. Moreover, the GI50 with U-251, with TK-10, with SNB-19, in the test with Malme-3M, with KM12 and in the test with HOP-62 was > 100 µM (inactive) each time. For the same molecule, the GI50 with M14, with HL-60, in the test with NCI-H460 and in the test with A549 was > 100 µM (inactive) each time.
`N#CC(/C(=N/NC(N)=S)C(=O)Nc1cccc(Cl)c1)c1ccccc1` (stereo not drawn): the GI50 in the test on OVCAR-8, with IGROV-1, in the test on HCT-116, with OVCAR-3, in the test on SF-295 and in the test on SF-539 was > 100 µM (inactive) throughout. Besides, the GI50 in the test on U-251, with TK-10, with SNB-19, in the test on Malme-3M, in the test on ACHN and in the test with KM12 was > 100 µM (inactive) each time. The GI50 with HOP-62, in the test with M14, with HL-60, in the test with NCI-H460 and in the test with A549 was > 100 µM (inactive) throughout.
Regarding `CCCCCCCCc1cc2c(O)c(c1)Cc1cc(CCCCCCCC)cc(c1O)Cc1cc(CCCCCCCC)cc(c1O)Cc1cc(CCCCCCCC)cc(c1O)Cc1cc(CCCCCCCC)cc(c1O)Cc1cc(CCCCCCCC)cc(c1O)C2`, the GI50 in the test on OVCAR-8, with IGROV-1, with HCT-116, in the test with SF-295, with SF-539 and in the test on U-251 was > 100 µM (inactive) each time. The GI50 with TK-10 was > 100 µM (inactive); in the test with SNB-19, > 100 µM (inactive); with Malme-3M, > 100 µM (inactive); in the test on ACHN it was > 100 µM (inactive); in the test with KM12, > 100 µM (inactive); in the test on HOP-62, > 10 µM (inactive). The GI50 in the test with M14 was > 10 µM (inactive); in the test on HL-60 it was > 100 µM (inactive); with NCI-H460, > 100 µM (inactive); in the test with A549, > 100 µM (inactive).
Take `Cc1ccc(F)c2c(=O)cc(-c3ccccc3)[nH]c12`: the GI50 in the test with OVCAR-8, in the test on IGROV-1, with HCT-116, with SF-295, in the test with SF-539 and in the test with U-251 was > 100 µM (inactive) in each case. The GI50 was > 100 µM (inactive) in the test on TK-10; > 100 µM (inactive) with Malme-3M; > 100 µM (inactive) in the test on ACHN; 98.2 µM (inactive) with KM12; > 100 µM (inactive) with HOP-62; > 100 µM (inactive) in the test on M14. The GI50 in the test with HL-60, in the test on NCI-H460 and in the test with A549 was > 100 µM (inactive) each time.
Consider `O=C1Sc2ccccc2C(=O)N2CSCC12` (stereo not drawn), for which the GI50 in the test on OVCAR-8, in the test with IGROV-1, with HCT-116, in the test with OVCAR-3, with SF-295 and in the test on SF-539 was > 100 µM (inactive) each time. Besides, the GI50 in the test on U-251, with TK-10, in the test on SNB-19, with Malme-3M, in the test on ACHN and in the test on KM12 was > 100 µM (inactive) throughout. Moreover, the GI50 in the test with HOP-62, in the test with M14, with HL-60, in the test with NCI-H460 and with A549 was > 100 µM (inactive) throughout.
In the case of `CCCCC1(C(NC(=O)c2ccccc2Cl)c2ccncc2)C(=O)N(c2ccccc2)N(c2ccccc2)C1=O` (stereo not drawn), the GI50 is 75 µM (inactive) in the test on OVCAR-8; > 100 µM (inactive) with IGROV-1; 23.9 µM (inactive) with HCT-116; 60 µM (inactive) in the test on OVCAR-3; 55.7 µM (inactive) in the test with SF-295; 88.1 µM (inactive) in the test on SF-539. Also, the GI50 in the test on U-251 is 34 µM (inactive); in the test with TK-10 it was 41 µM (inactive); in the test on SNB-19, 77.6 µM (inactive); in the test with Malme-3M, 61 µM (inactive); in the test with ACHN it was 36.6 µM (inactive); in the test with KM12, 81.3 µM (inactive). Also, the GI50 was > 100 µM (inactive) in the test with HOP-62; 55.7 µM (inactive) with M14; 17.6 µM (inactive) with HL-60; 32.8 µM (inactive) in the test with NCI-H460; 28.4 µM (inactive) in the test with A549.
On to `Oc1cc(-c2ccccc2)nc2cc(Cl)ccc12`, for which the GI50 is 0.74 µM (active) in the test with OVCAR-8; 0.54 µM (active) in the test on IGROV-1; 0.339 µM (active) with HCT-116; 0.368 µM (active) with SF-295; 0.412 µM (active) with SF-539; 0.509 µM (active) with U-251. Further, the GI50 with TK-10 was 27.7 µM (inactive); in the test on SNB-19 it was 0.527 µM (active); in the test on Malme-3M, 0.42 µM (active); with ACHN, 0.914 µM (active); in the test with KM12, 0.695 µM (active); in the test with HOP-62, 1.31 µM (inactive). The GI50 in the test on M14 was 0.555 µM (active); in the test on HL-60, 0.24 µM (active); in the test on NCI-H460, 0.417 µM (active); in the test with A549, 0.515 µM (active).
On to `Cc1nccc2c1[nH]c1cc(O)ccc12` [HARMOL HYDROCHLORIDE], for which the GI50 is 49.2 µM (inactive) in the test with OVCAR-8; 45.8 µM (inactive) in the test on IGROV-1; 41.5 µM (inactive) in the test on HCT-116; 42.5 µM (inactive) in the test on OVCAR-3; 33 µM (inactive) with SF-295; 73.3 µM (inactive) in the test with SF-539. For the same molecule, the GI50 was > 100 µM (inactive) in the test on U-251; > 100 µM (inactive) in the test on TK-10; > 100 µM (inactive) with SNB-19; 44.7 µM (inactive) in the test on Malme-3M; 31.8 µM (inactive) in the test with ACHN; 55.8 µM (inactive) with KM12. For the same molecule, the GI50 was 91.6 µM (inactive) with HOP-62; > 100 µM (inactive) with M14; 29 µM (inactive) with HL-60; 37.4 µM (inactive) in the test on NCI-H460; 44.8 µM (inactive) in the test with A549.
